In ChEMBL document CHEMBL1201862, “PubChem BioAssay data set” (2004):
Active and inactive are the calls of the source.

Columns and labels:
[1] = molecular target: 26S proteasome non-ATPase regulatory subunit 14 (Homo sapiens, UniProt O00487); test: inhibition of proteasome subunit RPN11 – biochemical, fluorescence polarization, uHTS hits, confirmation (AID 602368); format: functional
[2] = molecular target: Eukaryotic translation initiation factor 4E (Mus musculus, UniProt P63073); test: blockers of eIF4G binding by eIF4E – biochemical, TR-FRET, dose response (AID 855); format: functional;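 also: potency for disrupting eIF4E binding to eIF4GI seen as loss of FRET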
Chain of Eukaryotic translation initiation factor 4E (P63073 whole entry): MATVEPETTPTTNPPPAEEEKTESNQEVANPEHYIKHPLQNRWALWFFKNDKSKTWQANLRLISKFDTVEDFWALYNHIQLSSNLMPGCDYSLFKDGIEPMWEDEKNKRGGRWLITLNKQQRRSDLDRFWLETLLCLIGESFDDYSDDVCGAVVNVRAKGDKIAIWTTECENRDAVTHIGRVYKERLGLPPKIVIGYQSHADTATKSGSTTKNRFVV

[3] = molecular target: G-protein coupled receptor 35 (Homo sapiens, UniProt Q9HC97); test: inhibition of zaprinast-stimulated GPR35 beta-arrestin translocation – imaging, U2OS, beta-arrestin-GFP, zaprinast agonist, primary screen (AID 2058); format: functional;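 also: antagonist potency meaning inhibition of agonist-induced arrestin redistribution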
[4] = molecular target: Induced myeloid leukemia cell differentiation protein Mcl-1 (Homo sapiens, UniProt Q07820); format: functional
[5] = molecular target: T1, Voltage-gated N-type calcium channel alpha-1B subunit/Amyloid beta A4 precursor protein-binding family A member 1 (Homo sapiens, UniProt Q00975+Q02410); format: protein assay
T1 sequence (Q00975 whole entry): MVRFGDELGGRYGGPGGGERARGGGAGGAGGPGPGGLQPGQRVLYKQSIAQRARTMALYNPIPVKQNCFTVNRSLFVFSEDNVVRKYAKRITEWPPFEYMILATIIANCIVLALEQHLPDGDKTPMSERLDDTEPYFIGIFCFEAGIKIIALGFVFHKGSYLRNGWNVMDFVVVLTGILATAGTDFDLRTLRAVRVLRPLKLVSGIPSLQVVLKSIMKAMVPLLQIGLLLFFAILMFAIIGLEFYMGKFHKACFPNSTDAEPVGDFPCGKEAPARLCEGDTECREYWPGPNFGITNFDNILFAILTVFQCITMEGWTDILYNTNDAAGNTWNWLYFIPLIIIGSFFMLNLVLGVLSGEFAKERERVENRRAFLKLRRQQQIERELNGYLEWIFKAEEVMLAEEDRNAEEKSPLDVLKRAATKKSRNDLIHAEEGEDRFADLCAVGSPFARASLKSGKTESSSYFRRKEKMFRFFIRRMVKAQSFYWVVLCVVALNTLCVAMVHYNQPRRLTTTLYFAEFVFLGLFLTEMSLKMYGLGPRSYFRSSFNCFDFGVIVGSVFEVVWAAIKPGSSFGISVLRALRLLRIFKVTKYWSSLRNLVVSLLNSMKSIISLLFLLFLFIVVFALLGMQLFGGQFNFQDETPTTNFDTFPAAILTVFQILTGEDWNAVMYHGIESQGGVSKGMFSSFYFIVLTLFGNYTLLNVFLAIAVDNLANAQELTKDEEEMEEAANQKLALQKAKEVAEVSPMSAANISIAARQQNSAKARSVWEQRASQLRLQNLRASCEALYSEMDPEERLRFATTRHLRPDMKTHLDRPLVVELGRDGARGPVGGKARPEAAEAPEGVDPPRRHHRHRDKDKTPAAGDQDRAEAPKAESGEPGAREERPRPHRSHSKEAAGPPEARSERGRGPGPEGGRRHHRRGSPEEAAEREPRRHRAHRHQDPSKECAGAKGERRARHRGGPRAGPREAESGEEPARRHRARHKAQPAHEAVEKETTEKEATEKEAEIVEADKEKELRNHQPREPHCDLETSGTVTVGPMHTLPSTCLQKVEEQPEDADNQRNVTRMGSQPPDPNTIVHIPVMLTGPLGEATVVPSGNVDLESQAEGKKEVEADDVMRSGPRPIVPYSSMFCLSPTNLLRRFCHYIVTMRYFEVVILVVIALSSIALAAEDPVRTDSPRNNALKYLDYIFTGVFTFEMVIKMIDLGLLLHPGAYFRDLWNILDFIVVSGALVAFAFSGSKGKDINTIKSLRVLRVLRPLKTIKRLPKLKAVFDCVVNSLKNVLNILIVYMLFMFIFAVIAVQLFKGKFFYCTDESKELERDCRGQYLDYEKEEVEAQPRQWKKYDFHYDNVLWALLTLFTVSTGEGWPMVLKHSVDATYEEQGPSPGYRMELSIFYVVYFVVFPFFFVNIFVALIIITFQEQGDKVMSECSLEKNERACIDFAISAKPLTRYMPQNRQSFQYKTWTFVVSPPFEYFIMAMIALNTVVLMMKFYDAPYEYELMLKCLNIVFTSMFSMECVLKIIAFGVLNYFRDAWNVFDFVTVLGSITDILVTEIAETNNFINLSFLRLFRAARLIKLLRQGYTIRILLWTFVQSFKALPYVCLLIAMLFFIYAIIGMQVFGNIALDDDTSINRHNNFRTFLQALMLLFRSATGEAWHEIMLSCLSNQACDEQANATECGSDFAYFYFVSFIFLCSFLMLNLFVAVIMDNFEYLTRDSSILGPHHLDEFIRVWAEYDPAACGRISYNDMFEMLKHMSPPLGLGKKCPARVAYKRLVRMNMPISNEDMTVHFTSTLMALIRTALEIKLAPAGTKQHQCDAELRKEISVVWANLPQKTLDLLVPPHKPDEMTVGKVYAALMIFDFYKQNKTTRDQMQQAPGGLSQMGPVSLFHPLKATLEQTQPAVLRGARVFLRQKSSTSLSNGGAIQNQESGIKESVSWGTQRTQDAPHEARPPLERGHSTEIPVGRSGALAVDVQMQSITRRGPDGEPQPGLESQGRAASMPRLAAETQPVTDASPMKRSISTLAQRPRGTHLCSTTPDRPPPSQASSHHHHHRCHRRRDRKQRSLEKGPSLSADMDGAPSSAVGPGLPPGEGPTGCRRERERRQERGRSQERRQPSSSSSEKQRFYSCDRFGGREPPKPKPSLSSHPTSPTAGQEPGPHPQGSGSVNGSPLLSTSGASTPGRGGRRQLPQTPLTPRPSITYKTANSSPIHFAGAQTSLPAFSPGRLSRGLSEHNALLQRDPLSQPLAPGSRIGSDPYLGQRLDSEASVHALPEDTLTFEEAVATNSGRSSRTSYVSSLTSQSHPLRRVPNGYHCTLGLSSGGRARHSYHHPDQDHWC
T1 sequence (Q02410 whole entry): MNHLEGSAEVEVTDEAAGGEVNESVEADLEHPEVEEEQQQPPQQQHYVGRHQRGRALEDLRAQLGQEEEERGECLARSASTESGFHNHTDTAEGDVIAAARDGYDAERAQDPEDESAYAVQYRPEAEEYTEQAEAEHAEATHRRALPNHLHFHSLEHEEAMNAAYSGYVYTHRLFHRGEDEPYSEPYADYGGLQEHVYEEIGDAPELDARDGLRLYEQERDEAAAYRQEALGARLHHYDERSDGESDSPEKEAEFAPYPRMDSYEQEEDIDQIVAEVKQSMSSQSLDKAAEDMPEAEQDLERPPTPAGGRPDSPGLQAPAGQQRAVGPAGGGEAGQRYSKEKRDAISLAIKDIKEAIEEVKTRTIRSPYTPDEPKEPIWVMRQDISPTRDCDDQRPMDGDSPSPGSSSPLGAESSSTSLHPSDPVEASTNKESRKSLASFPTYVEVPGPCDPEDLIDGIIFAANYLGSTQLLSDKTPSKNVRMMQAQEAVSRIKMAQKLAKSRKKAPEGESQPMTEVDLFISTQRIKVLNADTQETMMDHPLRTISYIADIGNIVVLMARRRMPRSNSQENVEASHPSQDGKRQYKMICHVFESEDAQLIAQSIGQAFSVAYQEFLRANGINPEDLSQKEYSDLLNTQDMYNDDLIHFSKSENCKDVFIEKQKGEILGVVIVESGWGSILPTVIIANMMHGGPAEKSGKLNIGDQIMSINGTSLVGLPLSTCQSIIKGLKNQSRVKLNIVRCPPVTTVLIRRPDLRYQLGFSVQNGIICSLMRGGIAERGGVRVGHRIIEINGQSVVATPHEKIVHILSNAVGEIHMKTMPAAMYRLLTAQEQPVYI

[6] = molecular target: Prothrombin (Bos taurus, UniProt P00735); test: thrombin protease inhibitors – biochemical, fluorescence polarization, uHTS hits, dose response (AID 602369); format: functional
[7] = molecular target: 72 kDa type IV collagenase (Homo sapiens, UniProt P08253); test: Dose Response validation of uHTS RPN11 inhibitor hits using a MMP-2 Fluorescence assay.; format: functional
[8] = molecular target: T1, Voltage-gated N-type calcium channel alpha-1B subunit/Amyloid beta A4 precursor protein-binding family A member 1; format: protein assay; remark: listed apart in the source
[9] = tested on: Streptococcus sp. 'group A'; test: Streptococcus pyogenes SK(-)GAS viability under kanamycin – luminescence, BacTiterGlo, confirmation, counter-screen for streptokinase expression inhibitor project, dose response (AID 1900); format: functional, organism-based
[10] = molecular target: T2, Streptokinase A (Streptococcus pyogenes serotype M1, UniProt P10520); test: viability-normalized secreted streptokinase activity reduction – plasminogen activation absorbance, OD405, dose response (AID 1914); format: functional, Streptococcus pyogenes M1 GAS;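 also: secreted streptokinase activity via plasminogen activation per viability signal from cell pellet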
T2 sequence (P10520 whole entry): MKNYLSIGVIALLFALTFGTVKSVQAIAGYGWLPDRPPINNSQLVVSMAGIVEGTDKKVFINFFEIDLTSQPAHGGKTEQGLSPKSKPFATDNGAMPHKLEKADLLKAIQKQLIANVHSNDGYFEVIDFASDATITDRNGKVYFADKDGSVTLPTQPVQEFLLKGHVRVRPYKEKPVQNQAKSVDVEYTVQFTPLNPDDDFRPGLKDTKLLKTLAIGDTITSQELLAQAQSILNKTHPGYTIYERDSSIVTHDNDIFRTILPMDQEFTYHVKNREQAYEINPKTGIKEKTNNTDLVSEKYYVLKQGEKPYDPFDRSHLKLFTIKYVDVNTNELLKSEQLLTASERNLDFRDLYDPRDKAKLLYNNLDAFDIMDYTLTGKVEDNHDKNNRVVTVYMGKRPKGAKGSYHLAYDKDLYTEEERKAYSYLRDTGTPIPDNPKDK

[11] = molecular target: Scavenger receptor class B member 1 (Mus musculus, UniProt Q61009); test: mouse SR-BI DiI-HDL uptake blockers – ldlA[mSR-BI] cells, fluorescence, cherry pick, dose response (AID 493194); format: functional, cell-based;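 also: cellular uptake of fluorescent DiI-labeled HDL measured as cell fluorescence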
Chain of Scavenger receptor class B member 1 (Q61009 whole entry): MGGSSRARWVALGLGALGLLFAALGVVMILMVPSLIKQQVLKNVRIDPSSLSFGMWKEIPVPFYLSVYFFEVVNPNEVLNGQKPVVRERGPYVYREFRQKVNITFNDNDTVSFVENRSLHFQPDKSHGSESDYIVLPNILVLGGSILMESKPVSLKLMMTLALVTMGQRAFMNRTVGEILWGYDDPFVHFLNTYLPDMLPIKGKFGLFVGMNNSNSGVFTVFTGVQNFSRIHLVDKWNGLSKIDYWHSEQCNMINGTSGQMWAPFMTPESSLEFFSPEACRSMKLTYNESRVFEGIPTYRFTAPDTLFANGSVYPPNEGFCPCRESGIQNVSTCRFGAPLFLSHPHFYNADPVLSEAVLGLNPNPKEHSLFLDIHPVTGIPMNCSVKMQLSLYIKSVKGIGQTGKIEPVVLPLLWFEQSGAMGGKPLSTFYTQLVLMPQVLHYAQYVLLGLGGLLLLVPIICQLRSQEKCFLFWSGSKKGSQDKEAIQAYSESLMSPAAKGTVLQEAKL

[12] = tested on: Streptococcus; test: GAS UMAA2166 growth inhibition – luminescence, BacTiterGlo, counter-screen for streptokinase expression inhibitor project, dose response (AID 1915); format: functional, organism-based;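 also: potency for reduction of bacterial viability or growth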
[13] = tested on: Streptococcus; test: Luminescence Microorganism-Based Dose Response Follow up to Identify Compounds Cytotoxic to Streptococcus. [Related pubchem assays: 1677 (Project Summary), 1915, 1914, 1902 (Retest at Dose), 1900 (Counter Screen), 1662 (Primary HTS)]; format: functional, organism-based
[14] = tested on: HEK293; test: inhibition of NOD1-driven NF-kB reporter – cell-based, luminescence, uHTS, primary screen (AID 1578); format: functional; settings: Homo sapiens
[15] = molecular target: Nucleotide-binding oligomerization domain-containing protein 1 (Homo sapiens, UniProt Q9Y239); test: blockers of NOD1 pathway activity – revised, SAR follow-up (AID 2333); format: functional
[16] = molecular target: Tumor necrosis factor (Homo sapiens, UniProt P01375); test: analog potency on TNFa NF-kB signaling – cell-based, revised, SAR follow-up (AID 2337); format: functional
[17] = tested on: HEK293; test: NOD2 signaling inhibitors in MDP-stimulated cells, cell-based, uHTS, luminescence (AID 2001); format: functional; settings: Homo sapiens
[18] = tested on: HEK293; test: cells; settings: Homo sapiens
[19] = tested on: HEK293; test: cells; format: functional, cell-based; settings: Homo sapiens
[20] = molecular target: Nucleotide-binding oligomerization domain-containing protein 2 (Homo sapiens, UniProt Q9HC29); test: PubChem AID 2334; format: functional
Chain of Nucleotide-binding oligomerization domain-containing protein 2 (Q9HC29 whole entry, the tested form may be a part): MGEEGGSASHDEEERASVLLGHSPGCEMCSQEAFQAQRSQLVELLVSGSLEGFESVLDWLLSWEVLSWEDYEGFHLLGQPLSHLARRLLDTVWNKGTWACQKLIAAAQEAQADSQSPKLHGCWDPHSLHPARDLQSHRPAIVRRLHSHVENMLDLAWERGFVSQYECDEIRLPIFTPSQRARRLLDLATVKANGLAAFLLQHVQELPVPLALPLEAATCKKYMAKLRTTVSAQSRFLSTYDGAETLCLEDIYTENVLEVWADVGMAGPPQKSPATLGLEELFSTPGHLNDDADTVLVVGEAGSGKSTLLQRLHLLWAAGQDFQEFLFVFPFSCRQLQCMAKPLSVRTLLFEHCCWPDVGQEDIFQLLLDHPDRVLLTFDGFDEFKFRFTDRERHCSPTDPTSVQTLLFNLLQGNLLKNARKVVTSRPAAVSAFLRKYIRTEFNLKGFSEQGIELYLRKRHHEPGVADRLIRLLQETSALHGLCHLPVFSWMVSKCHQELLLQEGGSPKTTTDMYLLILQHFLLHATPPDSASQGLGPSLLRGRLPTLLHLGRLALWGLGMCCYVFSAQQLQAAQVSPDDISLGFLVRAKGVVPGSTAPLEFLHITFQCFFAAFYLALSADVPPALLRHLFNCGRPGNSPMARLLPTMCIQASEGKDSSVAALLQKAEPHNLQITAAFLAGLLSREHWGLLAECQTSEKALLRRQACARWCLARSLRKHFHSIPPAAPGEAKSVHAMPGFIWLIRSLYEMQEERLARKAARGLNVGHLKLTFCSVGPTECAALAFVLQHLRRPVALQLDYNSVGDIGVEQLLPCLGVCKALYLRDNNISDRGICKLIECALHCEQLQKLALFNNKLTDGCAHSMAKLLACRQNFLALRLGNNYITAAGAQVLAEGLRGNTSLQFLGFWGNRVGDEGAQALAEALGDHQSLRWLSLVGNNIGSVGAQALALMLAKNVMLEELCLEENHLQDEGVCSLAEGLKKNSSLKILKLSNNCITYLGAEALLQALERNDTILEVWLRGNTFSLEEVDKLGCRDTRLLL

[21] = tested on: HEK293; test: cells; format: functional, cell-based; settings: Homo sapiens; remark: listed apart in the source
[22] = molecular target: Vasopressin V1a receptor (Homo sapiens, UniProt P37288); test: Counterscreen for Oxytocin Receptor (OXTR) agonists: Fluorescence-based cell-based high throughput dose response assay to identify agonists of the vasopressin 1 receptor (V1R). [Related pubchem assays: 2435 (Primary screen (OXTR agonists in singlicate)), 434991 (Counterscreen (V1R agonists in triplicate)), 2482 (Summary (OXTR agonists)) …; format: functional
[23] = molecular target: Oxytocin receptor (Homo sapiens, UniProt P30559); test: Fluorescence-based cell-based high throughput dose response assay for agonists of the Oxytocin Receptor (OXTR). [Related pubchem assays: 2435 (Primary screen (OXTR agonists in singlicate)), 434991 (Counterscreen (V1R agonists in triplicate)), 2482 (Summary (OXTR agonists)), 434963 (Confirmation screen (OXTR agonists in triplicate))]; format: functional

N=C1/C(=C/c2ccc(-c3cccc(C(=O)O)c3)o2)C(=O)N=C2SC=C(c3ccccc3)N12
IC50 [1]: 5.82 µM (active) | IC50 [2]: 18.1 µM (active) | IC50 [3]: 1.1 µM (active) | IC50 [4]: > 54 µM (active) | IC50 [5]: 13.3 µM (active) | IC50 [6]: 10.2 µM (active) | IC50 [7]: 6.29 µM (active) | IC50 [8]: > 50 µM (inactive)

O=C(Nc1ccc(-c2csc(Nc3ccccc3)n2)cc1)c1cccc(C(F)(F)F)c1
EC50 [9]: > 150 µM (not active) | EC50 [10]: > 150 µM (not active) | AC50 [11]: 0.347 µM (active) | EC50 [12]: > 150 µM (not active)

Clc1cccc(Cl)c1CSc1nnc(/C=C/c2ccccc2)o1
EC50 [9]: 28.8 µM (active) | EC50 [13]: > 500 µM (not active) | EC50 [10]: 4.01 µM (active) | EC50 [12]: > 150 µM (not active)

COc1cccc(Nc2nc3ccccc3nc2NS(=O)(=O)c2cccs2)c1
EC50 [14]: 3.67 µM (active) | IC50 [15]: 4.68 µM (active) | IC50 [16]: 12.3 µM (active) | IC50 [17]: 11.5 µM (inactive) | IC50 [18]: > 20 µM (inactive) | IC50 [19]: > 20 µM (inactive) | IC50 [20]: 6.08 µM (active) | IC50 [21]: > 20 µM (inactive)

CC(C(=O)Nc1ccc2c(c1)OCO2)c1ccc([N+](=O)[O-])cc1 (stereo unspecified)
EC50 [22]: > 29.9 µM (not active) | EC50 [23]: > 29.9 µM (not active)
